The data set in a line: In vitro tests of lamellar structure formation. The data set is classed as physicochemical. To be noted: RMT associated to palmitic acid.

Turning to “ricinoleyl monomaleate triglyceride [RMT]”, the structure formed entry is “form a lamellar structure very similar to the lamellar gel structure that is naturally present in healthy skins”.

Source of the values: US8999355B2, “Non-rinse off cosmetic composition and a cosmetic product comprising said composition” (Natura Cosmeticos S.A., priority 2005, dated 2015).
